Laboratory results as given in PMC8537450, “Cyclopeptide Derivatives from the Sponge-Derived Fungus Acremonium persicinum F10” (Marine Drugs, 2021).
Like-named read-outs stand apart in the source and are kept apart here.

What was measured:
Assay type in all cases: cell-based
[1] = tested on: non-small cell lung cancer cell line A549; experiment: Cytotoxicity, MTT assay; conditions: positive control
[2] = tested on: human embryonic lung fibroblast cell MRC-5; experiment: Cytotoxicity, MTT assay; conditions: MRC-5, MTT, positive control
[3] = tested on: small cell lung cancer cell line H446; experiment: Cytotoxicity, MTT assay; conditions: printed H466, MTT, positive control
[4] = tested on: small cell lung cancer cell line H1688; experiment: Cytotoxicity, MTT assay; conditions: positive control
[5] = tested on: Aspergillus niger ATCC16404; experiment: microbe, parasite or virus in culture
Procedure: (§1) Compounds 1–8 were tested for antifungal activities against Aspergillus fumigatus ATCC204305 and Aspergillus niger ATCC16404 using broth microdilution antifungal susceptibility testing, according to previously published protocol. In the experiments, the RPMI-1640 medium containing 10.4 g/L of RPMI-1640 medium (R8755; Sigma, St. Louis, MO, USA), 6.7 g/L of Yeast Nitrogen Base (YNB; Becton, Dickinson and Company, Franklin Lakes, NJ, USA), 1.8% (w/v) glucose, and 40 mM HEPES (pH = 7.1) was used as culture medium. The inoculum per well for a 96-well microplate was 2 × 10^4 fresh conidia/mL (150 µL/well), which were incubated for 24 h at 37 ℃. The minimal inhibitory concentration (MIC) in the assay were performed using resazurin at 0.002% (w/v) of final concentration.

[6] = tested on: Aspergillus fumigatus ATCC204305; experiment: microbe, parasite or virus in culture
Procedure: as §1

SMILES | IC50 [1] [µM] | IC50 [2] [µM] | IC50 [3] [µM] | IC50 [4] [µM] | MIC ([5]; ATCC16404, Table S1, broth microdilution, RPMI-1640 + YNB + 1.8% glucose + 40 mM HEPES pH 7.1, 2 × 10^4 conidia/mL, 24 h, 37 °C, resazurin 0.002%, read-out: MIC) [µM] | MIC ([5]; ATCC16404, one range given for A. fumigatus and A. niger together, read-out: MIC values) [µM] | MIC ([5]; ATCC16404, text of method and conclusions, unit printed as μg/mL, read-out: MICs) [µg/mL] | MIC ([6]; ATCC204305, Table S1, broth microdilution, RPMI-1640 + YNB + 1.8% glucose + 40 mM HEPES pH 7.1, 2 × 10^4 conidia/mL, 24 h, 37 °C, resazurin 0.002%, read-out: MIC) [µM] | MIC ([6]; ATCC204305, one range given for A. fumigatus and A. niger together, read-out: MIC values) [µM] | MIC ([6]; ATCC204305, text of method and conclusions, unit printed as μg/mL, read-out: MICs) [µg/mL]
N.N.[Cl][Pt][Cl] [Cisplatin] | 3.8 | 23.8 | 1.9 | 3 |  |  |  |  |  | 
C[C@@H]1[C@H](O)[C@@H](C)/C=C/C=C/C=C/C=C/C=C/C=C/C=C/[C@H](O[C@@H]2O[C@H](C)[C@@H](O)[C@H](N)[C@@H]2O)C[C@@H]2O[C@](O)(C[C@@H](O)C[C@@H](O)[C@H](O)CC[C@@H](O)C[C@@H](O)CC(=O)O[C@H]1C)C[C@H](O)[C@H]2C(=O)O [Amphotericin B] |  |  |  |  | 1 | 1 | 1 | 1 | 1 | 1
